{"source": "patent US9814732B2", "about": "“Ulipristal acetate for prevention and treatment of breast tumors” (LABORATOIRE HRA-PHARMA, priority 2012, dated 2017)", "key": {"[1]": {"test_system": "metastatic breast cancers", "conditions": "cited from earlier work; for disease stabilization / objective response rate: 123 postmenopausal women, second or third line, mifepristone or onapristone pooled"}, "[2]": {"test_system": "normal human breast tissues xenografts", "test": "Ki67 mitotic index in normal human breast tissue xenografted in athymic mice", "format": "in vivo", "conditions": "28 days", "from_the_text": "Breast tissues samples were obtained from 6 women (aged 29-42 years) undergoing surgery for reduction mammoplasty, with their informed consent according to the French law on clinical experimentation.\n(§1) Four weeks old ovariectomized female NMRInu/nu 20 athymic mice were purchased from Janvier laboratory (Le Genest Saint Isle, France). Breast tissues samples were obtained from 6 women (aged 29-42 years). Human mammary gland tissue was cut into 2×2×2 mm fragments and 4 fragments were then subcutaneously xenografted onto the back of 4 mice per group. Four treatment groups were performed: control, E2, E2+P and E2+P+UPA. Treatments were administered by grafting steroid pellets onto the neck of each mouse. The experimental conditions were initially determined by using a dose range of hormones mixed with cholesterol into the pellets. Blood sample assays were performed after 2 weeks and 4 weeks of treatment to measure plasmatic hormonal concentrations. Finally, the dose of 0.3 mg for E2 and 20 mg for P and UPA were used, as it provides the expected blood concentrations. For the control groups, pellets containing only cholesterol were used. To reproduce menstrual cycle conditions, mice were grafted on the first day of experiment with cholesterol, E2 and/or UPA containing pellets and on the fourteen day with cholesterol or progesterone containing pellets in control and E2 groups, or in E+P and E2+P+UPA groups, respectively. Twenty eight days after the start of experiment, mice were sacrificed. Blood was collected for each mouse, and serum was frozen at −20° C. until hormone concentrations\nMitotic index was calculated using the Ki67 antibody, and was determined for each breast tissue grafted into mice. Immunohistochemical analyses were performed using the BOND-MAX workstation (Leica, Nanterre, France). Paraffin sections of breast tissue xenografts were de-waxed and rehydrated before antigen retrieval using citrate retrieval solution (pH 6.0) for Ki67 antibody or EDTA retrieval solution (pH 9.0) for PR and ERalpha antibodies, for 30 min. […]"}, "[3]": {"test": "Hormone concentrations in serum of pellet-treated athymic mice", "format": "in vivo", "conditions": "female, NMRI nu/nu athymic, mouse, other: steroid pellets grafted onto the neck, E2 0.3 mg pellet, day 28, read-out: concentration in mice serum (mean±SEM)", "experimental": "as §1\nEstradiol was measured by radioimmunoassay using Clinical Assays Estradiol-2 (Sorin Biomedica Diagnostics SpA, Saluggia, Italia). Progesterone levels were evaluated by UPLC-MSMS using Acquity UPLC and Quattro Premier XE (Waters, Milford Mass., USA).\nUPA concentrations were measured using LC-MS/MS technique by MPI Research (State College, Pa., USA)."}, "GR [4]": {"target": "T1, GR (Homo sapiens, UniProt P04150)", "T1 sequence (P04150 1-777)": "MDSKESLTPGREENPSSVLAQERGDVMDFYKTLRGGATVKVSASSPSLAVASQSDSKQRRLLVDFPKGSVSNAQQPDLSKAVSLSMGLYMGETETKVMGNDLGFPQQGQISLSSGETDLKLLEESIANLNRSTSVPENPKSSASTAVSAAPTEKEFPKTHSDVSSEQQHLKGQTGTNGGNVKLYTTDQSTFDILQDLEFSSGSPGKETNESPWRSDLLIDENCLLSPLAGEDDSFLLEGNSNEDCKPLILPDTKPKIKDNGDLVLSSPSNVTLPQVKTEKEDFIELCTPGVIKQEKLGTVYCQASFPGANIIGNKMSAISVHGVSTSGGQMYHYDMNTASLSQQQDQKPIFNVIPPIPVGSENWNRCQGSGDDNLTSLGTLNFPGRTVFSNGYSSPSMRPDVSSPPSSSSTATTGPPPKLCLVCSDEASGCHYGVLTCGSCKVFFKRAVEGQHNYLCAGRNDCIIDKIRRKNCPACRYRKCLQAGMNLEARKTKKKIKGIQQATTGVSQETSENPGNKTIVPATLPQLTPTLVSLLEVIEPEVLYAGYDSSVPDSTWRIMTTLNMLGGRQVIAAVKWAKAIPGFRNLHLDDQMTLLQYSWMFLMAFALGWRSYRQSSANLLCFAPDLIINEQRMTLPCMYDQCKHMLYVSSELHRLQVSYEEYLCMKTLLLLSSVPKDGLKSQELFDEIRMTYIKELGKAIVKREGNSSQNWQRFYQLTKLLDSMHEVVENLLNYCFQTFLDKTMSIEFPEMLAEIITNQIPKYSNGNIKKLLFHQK", "test": "GRE-Luc reporter gene transactivation in MCF-7 cells", "format": "cell-based", "parameters": "endogenous in cells; host or cells: MCF-7", "conditions": "MCF7, DEX 100 nM, test compound 100 nM, read-out: inhibition of DEX-induced luciferase transactivation (GRE-Luc)"}, "GR [5]": {"target": "T1, GR", "test": "GRE-Luc reporter gene transactivation in HBE cells", "format": "cell-based", "conditions": "DEX 100 nM, test compound 100 nM, read-out: inhibition of DEX induced luciferase transactivation (GRE-Luc)"}, "PR": {"target": "T2, PR (Homo sapiens, UniProt P06401)", "T2 sequence (P06401 1-933)": "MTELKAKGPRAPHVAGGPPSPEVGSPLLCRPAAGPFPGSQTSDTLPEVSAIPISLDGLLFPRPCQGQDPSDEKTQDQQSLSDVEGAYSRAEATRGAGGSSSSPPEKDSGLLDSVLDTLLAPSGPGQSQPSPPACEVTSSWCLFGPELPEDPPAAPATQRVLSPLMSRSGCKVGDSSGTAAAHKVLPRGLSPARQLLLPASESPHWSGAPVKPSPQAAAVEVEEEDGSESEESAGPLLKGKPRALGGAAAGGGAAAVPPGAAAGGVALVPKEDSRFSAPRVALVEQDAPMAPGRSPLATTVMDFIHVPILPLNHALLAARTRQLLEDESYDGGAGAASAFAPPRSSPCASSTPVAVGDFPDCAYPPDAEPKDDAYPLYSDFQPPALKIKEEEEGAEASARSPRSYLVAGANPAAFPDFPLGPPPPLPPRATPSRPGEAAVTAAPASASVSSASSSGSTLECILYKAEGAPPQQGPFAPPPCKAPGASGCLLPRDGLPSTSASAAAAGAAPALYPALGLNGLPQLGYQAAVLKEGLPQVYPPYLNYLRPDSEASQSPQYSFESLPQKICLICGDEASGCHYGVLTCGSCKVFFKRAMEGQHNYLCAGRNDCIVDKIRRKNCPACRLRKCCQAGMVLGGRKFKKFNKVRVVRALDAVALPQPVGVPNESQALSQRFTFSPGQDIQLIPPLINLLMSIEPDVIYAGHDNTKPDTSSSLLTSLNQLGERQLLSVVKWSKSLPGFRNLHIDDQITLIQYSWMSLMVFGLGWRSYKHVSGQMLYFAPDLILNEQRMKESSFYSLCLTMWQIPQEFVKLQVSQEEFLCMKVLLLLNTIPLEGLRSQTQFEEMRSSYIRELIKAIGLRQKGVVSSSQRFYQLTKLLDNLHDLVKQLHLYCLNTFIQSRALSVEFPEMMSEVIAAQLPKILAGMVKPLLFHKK", "test": "MMTV-Luc reporter gene transactivation in T-47D cells", "format": "cell-based", "parameters": "constitutively expressed high amounts of PR (progesterone receptor); endogenous in cells; host or cells: T-47D", "protocol": "(§2) T-47D and MCF-7 cell lines were respectively maintained in RPMI 1640 and in DMEM medium supplemented with 10% fetal calf serum (PAA Laboratory, Les Mureaux, France). […] Normal human breast epithelial cell (HBE) primary cultures were obtained from 20 women (aged 17-50 years). […] HBE cells were maintained in HAM F10 medium (PAA Laboratory, Les Mureaux, France) containing hydrocortisone (5 ng/ml), Triiodo-L-thyronine (6.5 ng/ml), choleratoxin (10 ng/ml), transferrin (5 mg/ml), insulin (0.016 U/ml), epidermal growth factor (10 ng/ml) (Sigma, St Quentin Fallavier, France) and 5% human serum (Etablissement Français du Sang).\n(§3) After seeding, cells were cultured for 24 h in serum and phenol red free medium. Then treatments were carried out in a phenol red free medium containing 5% dextran-charcoal stripped serum. […] Control cells were treated with ethanol, at 10 1:1000 final ethanol concentration alone as vehicle or E2 (10 nM).\n(§4) Cells were transfected with reporter gene plasmids containing glucocorticoid and progesterone responsive elements (GRE/PRE): 1) the MMTV-Luc is a Mouse Mammary Tumor Virus Long Terminal Repeat promoter containing one GRE/PRE palindrome and three GRE/PRE hemi-palindromes upstream to firefly luciferase gene in pFC31 vector, 2) the GRELuc contains six copies of GRE/PRE palindrome upstream to firefly luciferase gene in pBL vector. When indicated, HBE cells were transfected with human PR isoforms hPR-A and hPR-B expression plasmids constructed in POP3 vectors. Rous Sarcoma Virus promoter upstream to beta galactosidase gene (pRSV-β-Gal) was transfected in each experiment as control. Transfections were performed according to the manufacturer instructions using Lipofectamine or Lipofectamine LTX Reagents (Invitrogen, Cergy-Pontoise, France) for breast cancer cell lines or HBE cells, respectively. After 24 h of transfection, breast cancer and HBE cells were treated with hormones for 24 h or 48 h, respectively. At the end of the experiment, cells were lysed and luciferase activity was determined using the Luciferase Assay System (Promega, Charbonnières-les-bains, France). Beta galactosidase activity was assessed using the Galacto Star kit (Applied Biosystems, Courtaboeuf, France) to normalize luciferase activity data."}, "hPR-A and hPR-B": {"test_system": "hPR-A and hPR-B", "test": "MMTV-Luc reporter gene transactivation in HBE cells transfected with hPR-A and/or hPR-B", "format": "cell-based, human", "protocol": "as §2, §3, §4"}, "HBCx-34 tumors": {"test_system": "HBCx-34 tumors", "conditions": "model characterisation; cited from earlier work"}}, "data": [{"molecule": "CN(C)c1ccc([C@H]2C[C@]3(C)[C@@H](CC[C@]3(O)CCCO)[C@@H]3CCC4=CC(=O)CCC4=C32)cc1", "note": "[onapristone]", "values": [{"measurement": "disease stabilization", "setting": "[1]", "value": 43, "unit": "%"}, {"measurement": "objective response rate", "setting": "[1]", "value": 11, "unit": "%"}, {"measurement": "side effects that stopped clinical studies", "setting": "[1]", "value": "liver toxic"}]}, {"molecule": "C[C@]12CC[C@@H]3c4ccc(O)cc4CC[C@H]3[C@@H]1CC[C@@H]2O", "note": "[E2, 17β estradiol]", "values": [{"measurement": "proliferative activity (Ki67) in lobules", "setting": "[2]; E2 treated group vs control group", "value": "slightly but not significantly increased"}, {"measurement": "mitotic index (Ki67) in ducts", "setting": "[2]; E2 treated group, p<0.05", "value": "3.1±0.7 fold induction compared to the control group"}, {"measurement": "concentration at 28 days", "setting": "[3]", "value": "0.0369 ± 0.00425", "unit": "ng/mL"}]}, {"molecule": "CNc1ccc([C@H]2C[C@@]3(C)[C@@H](CC[C@]3(OC(C)=O)C(C)=O)[C@@H]3CCC4=CC(=O)CCC4=C32)cc1", "note": "[CDB-3877]", "values": [{"measurement": "inhibition at 0.1 µM", "setting": "GR [4]", "value": "26.5 ± 9.1", "unit": "%"}, {"measurement": "inhibition at 0.1 µM", "setting": "GR [5]", "value": "18.1 ± 11.8", "unit": "%"}]}, {"molecule": "CC#C[C@]1(O)CC[C@H]2[C@@H]3CCC4=CC(=O)CCC4=C3[C@@H](c3ccc(N(C)C)cc3)C[C@@]21C", "note": "[RU-486, mifepristone]", "values": [{"measurement": "disease stabilization", "setting": "[1]", "value": 43, "unit": "%"}, {"measurement": "objective response rate", "setting": "[1]", "value": 11, "unit": "%"}, {"measurement": "side effects that stopped clinical studies", "setting": "[1]", "value": "anti-glucocorticoid"}, {"measurement": "PR antagonist response on MMTV-Luc transactivation at 1 nM", "setting": "PR; P 100 nM, antagonist 1 nM", "value": "Partial antagonist responses"}, {"measurement": "PR antagonist action on MMTV-Luc transactivation", "setting": "PR; P 100 nM, antagonist 1000 to 10 nM", "value": "potent PR antagonist actions from 1000 to 10 nM"}, {"measurement": "progestational agonist properties on reporter gene transcription", "setting": "PR; compound alone", "value": "did not exhibit progestational agonist properties"}, {"measurement": "inhibition of P induced MMTV-Luc transactivation", "setting": "hPR-A and hPR-B; HBE cells co-transfected with hPR-A and hPR-B, P 100 nM, antagonist 1 to 1000 nM", "value": "inhibited P induced MMTV11 Luc transactivation in a dose dependent manner from 1 000 to 10 nM"}, {"measurement": "progestational agonist properties on reporter gene transcription", "setting": "hPR-A and hPR-B; HBE cells, compound alone", "value": "did not exhibit progestational agonist properties"}]}, {"molecule": "CCCCCOC(=O)Nc1nc(=O)n([C@@H]2O[C@H](C)[C@@H](O)[C@H]2O)cc1F", "note": "[capecitabine]", "values": [{"measurement": "responsiveness of the HBCx-34 tumor", "setting": "HBCx-34 tumors", "value": "responsive"}]}, {"molecule": "CC(=O)O[C@@]12CO[C@@H]1C[C@H](O)[C@@]1(C)C(=O)[C@H](O)C3=C(C)[C@@H](OC(=O)[C@H](O)[C@@H](NC(=O)OC(C)(C)C)c4ccccc4)C[C@@](O)([C@@H](OC(=O)c4ccccc4)[C@H]21)C3(C)C", "note": "[docetaxel]", "values": [{"measurement": "responsiveness of the HBCx-34 tumor", "setting": "HBCx-34 tumors", "value": "responsive"}]}]}
